# Laboratory results: PMC4822341 (Cell Discovery, 2015)
# pEC50, pIC50: −log10 of the molar value. Several values for one entry are separate records, joined by “and”; a condition that tells them apart may be missing. Equal values may be shown once.
# Legend:
# [1] = tested on: RAW264.7 cells; experiment: Gene expression (microarray and quantitative PCR) in LPS-stimulated RAW264.7 cells; type: cell-based, mouse; conditions: RAW264.7, LPS, steroid 100 nM
# Procedure: Mouse macrophage RAW264.7 cells were grown in 6-well plates to reach 80% confluence. The cells were pretreated with different steroids at 100 nM 1 h before overnight induction of inflammation by 1 μg ml^–1 LPS. Total RNA was isolated using a Qiagen mini RNA extraction kit (Valencia, CA, USA). Complementary DNA was synthesized from total RNA with an Invitrogen Superscript cDNA synthesis kit (Carlsbad, CA, USA). Target genes were quantified with a Power SYBR Green Real-Time PCR kit (Carlsbad, CA, USA) (ABI) in a StepOnePlus real-time PCR instrument (Applied Biosystems, Carlsbad, CA, USA). In every case, GAPDH (glyceraldehyde-3-phosphate dehydrogenase) was used as an internal control and data were analyzed by the ΔΔCt method. The specificity of target primers was tested both in a dissociation (melting) curve (Supplementary Figure S4) and against a water control. Primer sequence information is included in Supplementary Figure S4.
# RAW264.7 cells were treated with designated steroids at 100 nM 1 h before overnight LPS stimulation of inflammation. Each treatment was duplicated. The following day, RNA samples were isolated using a Qiagen mini RNA extraction kit and applied to the Agilent Whole Mouse Genome 8x60K gene expression platform. Data were analyzed by the limma package in R program. Heat maps were generated by the HeatMap 2 package. Pathway analysis was done via DAVID Bioinformatics Resources 6.7 (NIAID) and Venn diagrams were generated by BioVenn.
# [2] = Bone density (μCT) and biomechanics testing of femurs; type: in vivo, DBA/1 mice; conditions: 1 mg kg^-1 daily, 2 weeks
# Procedure: Femur bones were collected and scanned by μCT (Skyscan 1172 uCT) for quantification of trabecular and cortical bone parameters. The thresholds for μCT quantification of trabecular and cortical bone parameters were set at 80–100 and 100–110, respectively. μCT analyses of cortical bone parameters were performed on 100-μCT slices (1 mm total) from the middle shaft of femurs; trabecular parameters were assessed in 100-μCT slices (1 mm total) immediately below the distal growth plate of the femur. Following uCT scans, the femurs were individually tested on a TestResources 570 Force Transducer. Bones were thawed in PBS before being tested, to ensure no brittleness was due to freezing. […] Data points were collected at a frequency of 50 Hz and a deflection rate of 0.005 mm s^–1.
# [3] = Body weight (growth inhibition) of DBA/1 mice; type: in vivo; conditions: 1 mg kg^-1 daily i.p., 2 weeks, 7-week-old mice
# Procedure: (§1) Figure 5 Examination of side effects of VSGC12 and FF at the effective dose. (a) Body weight of DBA/1 mice treated with the indicated daily dose of steroids for 2 weeks. Mice body weight was measured at day 0, 7 and 14. (b) Insulin-tolerance test of mice treated with the indicated daily doses of steroids for 7 days. Glucose level was measured at day 7 at various time points before and after insulin injection. Data were plotted as percent of the glucose level of time 0. (c) Plasma insulin levels of mice treated with the indicated daily doses of steroid for 7 days. (d) Spleen size and weight for mice treated with the indicated daily doses of steroid for 2 weeks. (e) Cortical bone thickness of femurs of mice treated with the indicated daily doses of steroid for 2 weeks. (f) Bone stiffness of femurs of mice treated with the indicated daily doses of steroid for 2 weeks. Mouse strain: DBA/1. Each treatment n=5, error bars indicate s.e.m., *P<0.05; **P<0.01; ***P<0.001.
# [4] = Insulin-tolerance test and plasma insulin level; conditions: 1 mg kg^-1 daily, 7 days
# Procedure: DBA/1 mice (Taconic) were weighted just before the experiment. After 4 h fasting, mice were i.p. injected with 0.75 U kg^–1 of insulin (Huamlin R). Blood samples were taken from the tail at time 0 (before insulin injection), 15, 30, 45, 60, 90 and 120 min after injection. Plasma glucose levels were measured using an AlphaTrak glucose meter. All data were plotted as percent of glucose level at time 0. Endogenous insulin levels were measured using the Ultra Sensitive Mouse Insulin ELISA kit (Crystal Chem, Downers Groove, IL, USA).
# [5] = tested on: IL-6 release from A549 cells; experiment: Cytokine inhibition assay, IL-6 release from A549 cells; type: cell-based; conditions: Homo sapiens, TNFα 2 ng ml^-1, read-out: IC50 (suppression of IL-6 release)
# Procedure: A549 cells into 24-well plates were split at 40 000 cells/well. After 1 day growth, cells were treated with various steroids 1 h before overnight induction of inflammation by 2 ng ml^–1 TNFα according to literature. Sixteen hours after treatment, cell culture supernatants were subjected to anti-IL-6 Elisa (R&D Quantikine Elisa Human IL-6 Kit) according to the manual.
# [6] = Spleen size and weight (spleen atrophy); type: in vivo, DBA/1 mice; conditions: 1 mg kg^-1 daily, 2 weeks
# Procedure: as §1
# [7] = tested on: OVA-induced asthma; experiment: OVA-induced mouse asthma model; type: in vivo, Balb/c mice; conditions: for % repression of AHR: ACH challenge 4 mg kg^-1; for repression of airway hyper-responsiveness (AHR): Balb/c mice
# Procedure: As described before, 7–9-week-old female Balb/c mice (Taconic) were sensitized on days 0, 7 and 14 by i.p. injection of 50 μg OVA/1 mg alum in a total of 200 μl saline. Control mice received an equal volume of alum only. Mice were lightly anesthetized by isoflurane inhalation and challenged with intranasal OVA (100 μg in 30 μl saline) or saline on days 21–23, and were i.p. injected with different steroids. Twenty-four hours after the last challenge and treatment, pulmonary resistance was measured in response to a range of concentrations of intravenous acetylcholine using the forced oscillation technique with the FlexiVent system (SCIREQ) as previously described. Serum samples were analyzed for OVA-specific IgE using an ELISA (BD Biosciences, clone R35-118). Total and differential cell counts were determined by hemocytometer and by light microscopic evaluation of more than 300 cells per slide as previously described. After lavage, lungs were inflated with 10% buffered formalin to 25 cm H2O and transferred to 10% buffered formalin. Sections (5 μm) were stained with H&E for semi-quantitative assessment of inflammation and PAS for evaluation of mucus production. To quantify inflammation, H&E-stained lung sections were de-identified for blinding and scored for peribronchial and perivascular inflammatory cell infiltration: grade 0, no infiltration; grade 1, <25% of examined area; grade 2, 25–50%; grade 3, 51–75%; and grade 4, >75%. To quantify goblet cell hyperplasia, PAS stained lung sections were de-identified for blinding and scored for the percentage of PAS positive cells among airway epithelial cells: grade 0: none; grade 1 <25% of airway epithelial cells; grade 2, 25–50%; grade 3, 51–75%; and grade 4, >75%.
# [8] = biological target: β2-adrenergic receptor induction; set-up: method as in PMID 10433509; conditions: A549 cells; cited from earlier work
# [9] = tested on: granulocyte macrophage colony-stimulating factor release; set-up: method as in PMID 10433509; conditions: A549 cells; read-out: IC50 to inhibit granulocyte macrophage colony-stimulating factor release; cited from earlier work
# [10] = biological target: T1, GR (Homo sapiens, UniProt P04150); experiment: NF-κB-Luc repression reporter assay in AD293 cells; type: cell-based; conditions: TNFα 2 ng ml^-1
# T1 construct: expressed in transfected cells; host or cells: AD293
# T1 sequence (P04150 1-777): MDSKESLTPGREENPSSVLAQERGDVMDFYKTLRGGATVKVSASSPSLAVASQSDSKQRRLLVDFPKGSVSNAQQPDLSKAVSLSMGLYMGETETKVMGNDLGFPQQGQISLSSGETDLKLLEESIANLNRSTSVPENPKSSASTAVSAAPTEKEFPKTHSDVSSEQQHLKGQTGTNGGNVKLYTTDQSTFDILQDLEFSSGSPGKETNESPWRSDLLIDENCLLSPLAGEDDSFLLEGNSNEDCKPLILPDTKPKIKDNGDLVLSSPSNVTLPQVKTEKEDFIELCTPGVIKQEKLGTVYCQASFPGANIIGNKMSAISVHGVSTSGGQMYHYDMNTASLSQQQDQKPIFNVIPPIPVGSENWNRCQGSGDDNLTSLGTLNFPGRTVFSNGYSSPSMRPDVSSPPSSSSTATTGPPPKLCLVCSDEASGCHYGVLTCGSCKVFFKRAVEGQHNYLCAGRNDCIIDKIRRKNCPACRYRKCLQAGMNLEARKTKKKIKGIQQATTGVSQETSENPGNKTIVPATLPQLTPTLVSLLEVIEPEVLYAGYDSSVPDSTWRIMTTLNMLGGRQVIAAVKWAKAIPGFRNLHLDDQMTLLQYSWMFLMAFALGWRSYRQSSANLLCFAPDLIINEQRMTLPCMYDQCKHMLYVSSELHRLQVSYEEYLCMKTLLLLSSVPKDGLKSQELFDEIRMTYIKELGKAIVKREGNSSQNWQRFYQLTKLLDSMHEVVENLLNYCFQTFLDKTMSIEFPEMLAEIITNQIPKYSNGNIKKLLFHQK
# Procedure: (§2) Similar to previous reports, for induction 100 ng pHHLuc (MMTV-Luc) plasmid, 0.1 ng pRShGR together with 5 ng phRGtkRenilla were transfected by X-tremeGENE 9 (Roche) into AD293 cells per well in 24-well plate. For transrepression, 10 ng AP-1-Luc or 10ng pNF-κB-luc, 100 ng pRShGR and 5 ng phRGtkRenilla were transfected into AD293 cells per well. We used the same transfection protocol for the MR and PR assays, except of the use of 0.1 ng MR or PR plasmid to substitute GR. One day after transfection, for induction, cells were directly treated by steroids for 16 h; for repression, cells were treated with either PMA at 0.6 ng ml^–1 (for AP-1 reporter) or TNFα at 2 ng ml^–1 (for NF-κB reporter), together with various steroids. Cells were collected by addition of 1× Passive Lysis Buffer (Promega, Madison, WI, USA), and luciferase activity was assayed by the Dual-Glo Luciferase system (Promega). Data were plotted as firefly luciferase activity normalized to Renilla luciferase activity in Relative Luciferase Units.
# Error bars indicate SD, n=3.
# [11] = biological target: T1, GR; experiment: In vitro H3-Dex competition GR ligand-binding assay; conditions: H3-DEX 15 nM, GR cytosol
# Source text: The in vitro GR binding assay is similar to the one described previously. […] Data were plotted as a standard competition curve by GraphPad Prism 5.
# [12] = biological target: T1, GR; experiment: MMTV-Luc induction reporter assay in AD293 cells; type: cell-based; conditions: 16 h
# Procedure: as §2
# [13] = biological target: T1, GR; experiment: AP-1-Luc repression reporter assay in AD293 cells; type: cell-based; conditions: AP-1 reporter, PMA 0.6 ng ml^-1
# Procedure: as §2
# [14] = biological target: T1, GR; conditions: cited from earlier work
compound,measurement,setting,value
"C[C@@H]1C[C@H]2[C@@H]3C[C@H](F)C4=CC(=O)C=C[C@]4(C)[C@@]3(F)[C@@H](O)C[C@]2(C)[C@@]1(OC(=O)c1ccco1)C(=O)SCF [FF, fluticasone furoate, reference compound]","inhibition activity of pro-inflammatory cytokines (microarray, normalized to DEX)",[1],much stronger inhibition activity than DEX
same,bone strength (stiffness) of femurs,[2],dramatic decrease of bone strength in terms of stiffness
same,cortical bone thickness of femurs,[2]; μCT,dramatic decrease of the cortical bone thickness
same,growth inhibition (body weight),[3],significant growth inhibition
same,insulin resistance in insulin-tolerance test,[4],hyper-insulin resistance
same,plasma (endogenous) insulin level,[4],dramatic increase of the endogenous insulin level
same,pIC50,[5],10.52
same,atrophy of the spleen,[6],dramatic shrinkage of the spleen
same,% repression of total differentiated cells,[7]; 0.125 mg/kg,14%
same,% repression of AHR,[7]; 0.125 mg/kg,< 28% and 28%
same,% repression of total differentiated cells,[7]; 0.25 mg/kg,30%
same,% repression of AHR,[7]; 0.25 mg/kg,< 35% and 34%
same,infiltration of immune responsive cells into the lungs (total and differential cell count),[7]; 1 mg kg^-1 i.p.,strongly repressed the infiltration of immune responsive cells into the lungs
same,repression of airway hyper-responsiveness (AHR),[7]; 1 mg kg^-1 i.p.,strongly suppress the AHR to the basal level
same,"histology score, PAS staining","[7]; 1 mg kg^-1 i.p., grade 0-4",1.5
same,"histology score, hematoxylin and eosin staining","[7]; 1 mg kg^-1 i.p., grade 0-4",0.83
same,% repression of AHR,"[7]; 1 mg/kg, OVA+DMSO 0, saline 100",95%
same,% repression of total differentiated cells,"[7]; 1 mg/kg, saline 100, OVA+DMSO 0",94%
same,minimal dose to maximally repress the inflammation (maximal effective dose),"[7]; judged from AHR, i.p.",1 mg kg^–1
same,OVA-IgE levels,"[7]; lower doses (0.25, 0.125, 0.0625 mg kg^-1)",unexpectedly higher than the vehicle control
"C[C@@H]1C[C@H]2[C@@H]3CCC4=CC(=O)C=C[C@]4(C)[C@@]3(F)[C@@H](O)C[C@]2(C)[C@@]1(O)C(=O)CO [DEX, dexamethasone, reference compound]",pIC50,[5],9.10
same,infiltration of immune responsive cells into the lungs (total and differential cell count),[7]; 1 mg kg^-1 i.p.,only a mild effect
same,repression of airway hyper-responsiveness (AHR),[7]; 1 mg kg^-1 i.p.,neither VSG22 nor DEX can effectively repress the airway hyper-responsiveness
"CCC(=O)O[C@]1(C(=O)SCF)[C@H](C)C[C@H]2[C@@H]3C[C@H](F)C4=CC(=O)C=C[C@]4(C)[C@@]3(F)[C@@H](O)C[C@@]21C [FP, fluticasone propionate]",pEC50,[8],8.96
same,pIC50,[9],10.74
CON(C)C(=O)C1(OC(=O)c2ccco2)CCC2C3CCC4=Cc5c(cnn5-c5ccccc5)CC4(C)C3C(O)CC21C (stereo not drawn) [VSG22],pIC50,[10],10.00
same,"inhibition activity of pro-inflammatory cytokines (microarray, normalized to DEX)",[1],much stronger inhibition activity than DEX
same,pIC50,[11],8.39
same,pEC50,[12],9.13
same,pIC50,[5],10.15
same,pIC50,[13],10.40
same,increase in potency relative to the original backbone VSG24,[14],more than 1 000 fold
same,repression of airway hyper-responsiveness (AHR),[7]; 1 mg kg^-1 i.p.,neither VSG22 nor DEX can effectively repress the airway hyper-responsiveness
